Experiments:
DNA gyrase subunit GyrB = DNA gyrase subunit GyrB (Mycobacterium tuberculosis, UniProt P9WG45); assay: SPR; assay type: binding
DNA gyrase subunit GyrA = DNA gyrase subunit GyrA (Mycobacterium tuberculosis, UniProt P9WG47); assay: SPR; assay type: binding
Chain of DNA gyrase subunit GyrA (P9WG47 2-838): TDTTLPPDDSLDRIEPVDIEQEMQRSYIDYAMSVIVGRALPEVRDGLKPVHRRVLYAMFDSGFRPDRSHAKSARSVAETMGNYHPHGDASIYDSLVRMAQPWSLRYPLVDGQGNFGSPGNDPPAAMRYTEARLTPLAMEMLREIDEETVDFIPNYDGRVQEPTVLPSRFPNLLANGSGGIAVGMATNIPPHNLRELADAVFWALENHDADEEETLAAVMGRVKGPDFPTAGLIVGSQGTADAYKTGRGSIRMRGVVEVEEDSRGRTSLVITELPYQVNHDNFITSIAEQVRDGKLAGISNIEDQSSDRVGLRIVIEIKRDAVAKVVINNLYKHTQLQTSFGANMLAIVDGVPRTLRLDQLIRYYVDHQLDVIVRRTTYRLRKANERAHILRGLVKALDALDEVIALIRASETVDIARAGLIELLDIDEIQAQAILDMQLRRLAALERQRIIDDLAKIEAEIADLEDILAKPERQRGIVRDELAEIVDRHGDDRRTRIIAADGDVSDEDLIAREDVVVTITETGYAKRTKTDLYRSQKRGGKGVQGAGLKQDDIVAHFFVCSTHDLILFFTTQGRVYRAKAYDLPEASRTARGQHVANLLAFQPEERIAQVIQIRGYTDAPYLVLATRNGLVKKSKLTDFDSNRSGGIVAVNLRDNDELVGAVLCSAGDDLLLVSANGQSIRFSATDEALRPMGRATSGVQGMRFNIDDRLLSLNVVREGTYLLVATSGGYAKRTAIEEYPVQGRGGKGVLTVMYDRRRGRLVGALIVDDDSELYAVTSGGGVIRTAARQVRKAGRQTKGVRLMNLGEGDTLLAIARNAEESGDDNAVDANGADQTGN

Chain of DNA gyrase subunit GyrB (P9WG45 whole entry): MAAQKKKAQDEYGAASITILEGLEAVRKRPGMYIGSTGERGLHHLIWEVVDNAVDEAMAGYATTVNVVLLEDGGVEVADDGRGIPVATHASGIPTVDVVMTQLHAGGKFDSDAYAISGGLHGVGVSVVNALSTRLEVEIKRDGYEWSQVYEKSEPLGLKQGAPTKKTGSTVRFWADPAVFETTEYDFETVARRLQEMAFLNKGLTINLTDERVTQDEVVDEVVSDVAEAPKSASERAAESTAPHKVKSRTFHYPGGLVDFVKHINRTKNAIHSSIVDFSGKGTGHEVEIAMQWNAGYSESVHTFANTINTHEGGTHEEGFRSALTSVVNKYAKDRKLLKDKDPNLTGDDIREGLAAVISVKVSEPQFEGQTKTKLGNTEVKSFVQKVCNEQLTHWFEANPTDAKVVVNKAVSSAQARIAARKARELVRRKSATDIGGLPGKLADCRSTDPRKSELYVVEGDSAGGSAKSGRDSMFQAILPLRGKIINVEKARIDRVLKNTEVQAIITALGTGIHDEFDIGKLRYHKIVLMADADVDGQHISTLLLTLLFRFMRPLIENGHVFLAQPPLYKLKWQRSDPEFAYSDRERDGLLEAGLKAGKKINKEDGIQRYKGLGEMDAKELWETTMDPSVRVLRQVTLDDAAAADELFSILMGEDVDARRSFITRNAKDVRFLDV

COc1cccc2c1C(=O)c1c(O)c3c(c(O)c1C2=O)C[C@@](O)(/C(CO)=N/NC(=O)CCCCCN1C(=O)C=CC1=O)C[C@@H]3O[C@H]1C[C@H](N)[C@H](O)[C@H](C)O1 [aldoxorubicin] was tested, and the Kd (DNA gyrase subunit GyrB) was 0.324 µM and the Kd (DNA gyrase subunit GyrA) was 0.4 µM.
For CN1CCC[C@H]1CCNC(=O)c1cn2c3c(c(N4CCC(c5cnccn5)C4)c(F)cc3c1=O)Oc1cc3ccccc3cc1-2 (stereo partly shown) [quarfloxin], the Kd (DNA gyrase subunit GyrB) was 30.1 µM and the Kd (DNA gyrase subunit GyrA) was 2.89 µM.
